What was measured:
[1] = test system: hot-plate assay in mouses; experiment: hot-plate assay in mice; type: in vivo, Swiss albino mice; conditions: ip, hot plate 55° C., licking of the paws
Protocol: The analgesic activity of the products object of the invention have been studied in several assays using the Swiss albino mice as the experimental animal. The assay of contortions induced by phenylbenzoquinone, the hot-plate assay and the hot-point assay are now described. The examples that are presented by way of illustration describe some of the pharmacological assays and should not limit the scope of the invention in any way.
The hot-plate assay was carried out following the method described by M. Ocana et al. (Europ J. Pharmacol. 186: 377-378, 1990). The product under study was administered s.c. or i.p. and 30 minutes later the analgesic effect was registered. For this the animals were placed on a metallic surface kept at 50° C. or 55° C. and the time registered (latency) until the licked their hind legs and a jump. The analgesic activity was calculated at each dose, comparing the potency of the treated group with the control group. Using the results obtained the ED-50 was calculated.

[2] = test system: mouse's tail; experiment: animal or person; type: in vivo, Swiss albino mice; conditions: sc

SMILES | ED50 [2] [mg/kg] | further results
CC(C)=CCN1CCC2(C)c3cc(O)ccc3CC1C2C (centres unmarked) [Pentazocine, reference compound] |  | Δ Latency ([1]; 10 mg/kg): 6 s
Clc1ccc(C2=CCN(CCCCn3ccnc3-c3ccccc3)CC2)cc1 [Example 63a] | 70 | 
Clc1ccc(C2=CCN(CCCCn3cc(Cl)cn3)CC2)cc1 [Example 47a] |  | Δ Latency ([1]; 40 mg/kg): 5 s
Brc1ccc(C2=CCN(CCCCn3cncn3)CC2)cc1 [Example 59a] | 60 | 
C1=C(c2ccccc2)CCN(CCCCn2cccc2)C1 [Example 51a] | 5 | 

From USRE39113E1 (priority 1998, dated 2006)
